Data on 18 compounds can be found in patent US9999616B2 (ZENITH EPIGENETICS LTD., priority 2013, dated 2018).

Assay [1] has as its system c-myc in Human AML MV4-11 cells. The experiment in a line: Inhibition of cMYC expression (mRNA, real-time PCR) in MV4-11 cells. The format is cell-based. The following applies: 3 h treatment, cMYC mRNA by real-time PCR. In outline:
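MV4-11 cells in IMDM with 10% FBS were treated with increasing compound concentrations (DMSO 0.1%) for 3 h at 37 °C, in triplicate. Isolated mRNA was quantified by one-step TaqMan RT-qPCR, cMYC Ct normalized to cyclophilin, and fold expression given relative to DMSO control.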

The next assay deals with Human AML MV-4-11 cells. The experiment in a line: Inhibition of cell proliferation in MV4-11 cells (CellTiter Aqueous One). The format is cell-based. Particulars: MV4-11, 72 h. Put shortly:
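MV4-11 cells, 5×10^4 per well in IMDM with 10% FBS, were exposed to increasing compound concentrations or 0.1% DMSO for 72 h at 37 °C in triplicate. Viability was read by MTS (CellTiter Aqueous One) absorbance at 490 nm after 3-4 h. IC50 was derived from background-corrected signal relative to DMSO.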

A further assay has as its system hIL-6 mRNA. As to the kind of experiment: Inhibition of hIL-6 mRNA transcription in LPS-stimulated U937 macrophages. Particulars: Homo sapiens, U-937, PMA-differentiated U937 cells, 1 h pretreatment, LPS 3 h, read-out: IL-6 activity. The format is cell-based, Human. In outline:
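PMA-differentiated U937 macrophages (60 ng/mL PMA, 3 days) pretreated 1 h with compound in 0.1% DMSO, then stimulated with 1 ug/mL E. coli LPS for 3 h at 37° C. IL-6 mRNA quantified by one-step TaqMan qRT-PCR, normalized to cyclophilin; fold expression relative to control, triplicate wells.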

Assay [2] concerns the target Brd4 bromodomain 1 (BRD4(1)) (Homo sapiens, UniProt O60885). As to the kind of experiment: Inhibition of tetra-acetylated histone H4 binding to Brd4 bromodomain 1, measured by FRET (HTRF). Also noted: made in house; host or cells: E. coli BL21(DE3). Particulars: 2 h at room temperature. In outline: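 Inhibition was read as a drop in 665 nm relative to 620 nm HTRF signal after 2 h at room temperature, with IC50 from dose-response curves in duplicate wells. Reactions held 200 nM E. coli-expressed His-tagged bromodomain and 25-50 nM biotinylated tetra-acetylated histone H4 peptide. Buffer was 30 mM HEPES pH 7.4 with KF, CHAPS, BSA and 0.2% DMSO.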
(Time-resolved FRET reads energy transfer from a long-lived donor to a nearby acceptor.)

As for `Cc1nc2c(-c3ccc4nncn4c3)cc(-c3c(C)noc3C)cc2[nH]1` [Example Compound 156, 4-(4-([1,2,4]triazolo [4,3-a]pyridin-6-yl)-2-methyl-1H-benzo[d]imidazol-6-yl)-3,5-dimethyl isoxazole], the IC50 in assay [1] is 0.3 to 3 µM; with Human AML MV-4-11 cells, 3 to 30 µM; in the assay on hIL-6 mRNA it was 3 to 30 µM; in assay [2] it was at most 0.3 µM.
Take `Cc1nc2c(-c3cc(C(F)(F)F)ccc3F)cc(-c3c(C)noc3C)cc2[nH]1` [Example Compound 157, 4-(4-(2-fluoro-5-(trifluoro-methyl)phenyl)-2-methyl-1H-benzo[d]imidazol-6-yl)-3,5-dimethyl isoxazole]: the IC50 is 0.3 to 3 µM in assay [1], 0.3 to 3 µM in the assay on Human AML MV-4-11 cells, 0.3 to 3 µM in the assay on hIL-6 mRNA and at most 0.3 µM in assay [2].
As to `Cc1nc2c(CCc3ccccc3)cc(-c3c(C)noc3C)cc2[nH]1` [Example Compound 161, 3,5-dimethyl-4-(2-methyl-4-phenethyl-1H-benzo[d]imidazol-6-yl)isoxazole], the IC50 in assay [1] is 0.3 to 3 µM; with Human AML MV-4-11 cells it was 3 to 30 µM; in the assay on hIL-6 mRNA, 0.3 to 3 µM; in assay [2], at most 0.3 µM.
Regarding `Cc1nc2c(-c3cc(C(F)(F)F)ccc3Cl)cc(-c3c(C)noc3C)cc2[nH]1` [Example Compound 162, 4-(4-(2-chloro-5-(trifluoro-methyl)phenyl)-2-methyl-1H-benzo[d]imidazol-6-yl)-3,5-dimethyl isoxazole], the IC50 (in assay [1]; in the assay with Human AML MV-4-11 cells; in the assay with hIL-6 mRNA; in assay [2]) was 0.3 to 3 µM throughout.
Turning to `Cc1nc2c(-c3cnc4ccccc4c3)cc(-c3c(C)noc3C)cc2[nH]1` [Example Compound 163, 3,5-dimethyl-4-(2-methyl-4-(quinolin-3-yl)-1H-benzo[d]imidazol-6-yl)isoxazole], the IC50 in assay [1] is 0.3 to 3 µM; with Human AML MV-4-11 cells, 0.3 to 3 µM; with hIL-6 mRNA, 0.3 to 3 µM; in assay [2], at most 0.3 µM.
For the compound `Cc1nc2c(-c3cscc3C)cc(-c3c(C)noc3C)cc2[nH]1` [Example Compound 166, 3,5-dimethyl-4-(2-methyl-4-(4-methyl-thiophen-3-yl)-1H-benzo[d]imidazol-6-yl)isoxazole], the IC50 in assay [1] is 0.3 to 3 µM; with Human AML MV-4-11 cells it was 0.3 to 3 µM; in the assay on hIL-6 mRNA, 0.3 to 3 µM; in assay [2], at most 0.3 µM.
Consider `Cc1nc2c(-c3c(C)cnn3C)cc(-c3c(C)noc3C)cc2[nH]1` [Example Compound 169, 4-(4-(1,4-dimethyl-1H-pyrazol-5-yl)-2-methyl-1H-benzo[d]imidazol-6-yl)-3,5-dimethyl isoxazole], for which the IC50 in assay [1] was 0.3 to 3 µM; in the assay on Human AML MV-4-11 cells, 0.3 to 3 µM; with hIL-6 mRNA it was 0.3 to 3 µM; in assay [2], at most 0.3 µM.
For the compound `Cc1nc2c(-c3sc(C)nc3C)cc(-c3c(C)noc3C)cc2[nH]1` [Example Compound 170, 4-(4-(2,4-dimethyl-thiazol-5-yl)-2-methyl-1H-benzo[d]imidazol-6-yl)-3,5-dimethyl isoxazole], the IC50 in assay [1] was 0.3 to 3 µM; with Human AML MV-4-11 cells, 0.3 to 3 µM; with hIL-6 mRNA, 0.3 to 3 µM; in assay [2], at most 0.3 µM.
In the case of `COc1ccncc1Oc1cc(-c2c(C)noc2C)cc2[nH]c(C)nc12` [Example Compound 171, 4-(4-((4-methoxy-pyridin-3-yl)oxy)-2-methyl-1H-benzo[d]imidazol-6-yl)-3,5-dimethyl isoxazole], the IC50 in assay [1] is 0.3 to 3 µM; in the assay on Human AML MV-4-11 cells it was 0.3 to 3 µM; in the assay with hIL-6 mRNA, 0.3 to 3 µM; in assay [2], at most 0.3 µM.
On to `Cc1nc2c(Oc3cc(C#N)ccc3C)cc(-c3c(C)noc3C)cc2[nH]1` [Example Compound 172, 3-((6-(3,5-dimethyl-isoxazol-4-yl)-2-methyl-1H-benzo[d]imidazol-4-yl)oxy)-4-methyl benzonitrile], for which the IC50 in assay [1] is 0.3 to 3 µM; with Human AML MV-4-11 cells, 0.3 to 3 µM; in the assay with hIL-6 mRNA it was 0.3 to 3 µM; in assay [2], at most 0.3 µM.
Consider `Cc1nc2c(N3CCOCC3)cc(-c3c(C)noc3C)cc2[nH]1` [Example Compound 173, 4-(6-(3,5-dimethyl-isoxazol-4-yl)-2-methyl-1H-benzo[d]imidazol-4-yl) morpholine], for which the IC50 in assay [1] was 0.3 to 3 µM; in the assay on Human AML MV-4-11 cells, 0.3 to 3 µM; in the assay on hIL-6 mRNA it was 0.3 to 3 µM; in assay [2], at most 0.3 µM.
In the case of `Cc1nc2c(Oc3cc(C(N)=O)ccc3C)cc(-c3c(C)noc3C)cc2[nH]1` [Example Compound 174, 3-((6-(3,5-dimethylisoxazol-4-yl)-2-methyl-1H-benzo[d]imidazol-4-yl)oxy)-4-methylbenzamide], the IC50 in assay [1] is 0.3 to 3 µM; in the assay on Human AML MV-4-11 cells it was 0.3 to 3 µM; in the assay on hIL-6 mRNA, 0.3 to 3 µM; in assay [2], at most 0.3 µM.
In the case of `Cc1nc2c(N3CCOCC3C)cc(-c3c(C)noc3C)cc2[nH]1` (stereo not drawn) [Example Compound 177, 4-(6-(3,5-dimethyl-isoxazol-4-yl)-2-methyl-1H-benzo[d]imidazol-4-yl)-3-methyl morpholine], the IC50 in assay [1] is at most 0.3 µM; with Human AML MV-4-11 cells it was 0.3 to 3 µM; in the assay on hIL-6 mRNA it was 0.3 to 3 µM; in assay [2], at most 0.3 µM.
With `Cc1n[nH]c(C)c1-c1cc(-c2c(C)noc2C)cc2[nH]nc(C)c12` [Example Compound 180, 4-(4-(3,5-dimethyl-1H-pyrazol-4-yl)-3-methyl-1H-indazol-6-yl)-3,5-dimethylisoxazole], the IC50 (in assay [1]; in the assay on Human AML MV-4-11 cells; with hIL-6 mRNA; in assay [2]) was at most 0.3 µM throughout.
Take `Cc1noc(C)c1-c1cc(-c2c(C)nn(C)c2C)c2c(c1)ncn2C` [Example Compound 182, 3,5-dimethyl-4-(1-methyl-7-(1,3,5-trimethyl-1H-pyrazol-4-yl)-1H-benzo[d]imidazol-5-yl)isoxazole]: the IC50 in assay [1] is at most 0.3 µM; in the assay with Human AML MV-4-11 cells it was 0.3 to 3 µM; in the assay with hIL-6 mRNA, at most 0.3 µM; in assay [2] it was at most 0.3 µM.
In the case of `Cc1ccncc1-c1cc(-c2c(C)noc2C)cc2[nH]c(NC3CCOCC3)nc12` [Example Compound 201, 6-(3,5-dimethyl-isoxazol-4-yl)-4-(4-methyl-pyridin-3-yl)-N-(tetra hydro-2H-pyran-4-yl)-1H-benzo[d] imidazol-2-amine], the IC50 (in assay [1]; in the assay with Human AML MV-4-11 cells; with hIL-6 mRNA; in assay [2]) was at most 0.3 µM each time.
For the compound `Cc1noc(C)c1-c1cc(-c2cccc(C#N)c2C)c2nc(N3CCOCC3)[nH]c2c1` [Example Compound 203, 3-(6-(3,5-dimethyl-isoxazol-4-yl)-2-morpholino-1H-benzo[d]imidazol-4-yl)-2-methyl benzonitrile], the IC50 was at most 0.3 µM in assay [1], 0.3 to 3 µM with Human AML MV-4-11 cells, at most 0.3 µM with hIL-6 mRNA and at most 0.3 µM in assay [2].
Regarding `Cc1noc(C)c1-c1cc(-c2cccc(C#N)c2C)c2nc(NC3CCOCC3)[nH]c2c1` [Example Compound 204, 3-(6-(3,5-dimethyl-isoxazol-4-yl)-2-((tetrahydro-2H-pyran-4-yl)amino)-1H-benzo[d]imidazol-4-yl)-2-methyl benzonitrile], the IC50 (in assay [1]; with Human AML MV-4-11 cells; with hIL-6 mRNA; in assay [2]) was at most 0.3 µM each time.
